Patent US12655162B2, “Highly efficient myeloperoxidase activatable imaging agents” (priority 2019, dated 2026)

Columns and labels:
[1] = transmetallation with Zn^2+, cited from earlier work
MPO [2] = assay: MR imaging of complete Freund's adjuvant (CFA) subcutaneous inflammation; type: in vivo, mouse; settings: wild-type mice
Description: The efficacy of mcMPO-Gd was validated in a well-established mouse model of subcutaneous inflammation induced by complete Freund's adjuvant (CFA). Six to ten weeks old female C57BL/6J mice (Jackson Laboratories, Bar Harbor, ME) and MPO-deficient mice were used for this experiment. The mice were injected subcutaneously with a 1:1 (v:v) emulsion of CFA:PBS (40 μL of total volume) on one forearm under isoflurane anesthesia. PBS (40 μL) was injected on the other side as control. After 24 h, gadolinium agents (mcMPO-Gd in PBS containing 10% DMSO and 20% N,N-dimethylacetamide, or MPO-Gd in PBS containing 5% DMSO, or Dotarem in PBS) were administered through tail vein injection and the mice imaged at 0 min, 15 min, 30 min, 45 min, and 60 min using serial T1-weighted imaging (TR:900 ms, TE: 13.59 ms, 0.156×0.156×0.5 mm Voxels) with chemical fat suppression and respiratory gating on a 4.7 T small animal MR scanner (Bruker, Cambridge, MA) with a 3-cm quadrature volume coil (Rapid MR International, Germany). Regions of interest (ROI) were drawn manually by a person blinded to the identity of the mice or imaging agent used, and the contrast-to-noise ratios (CNRs) were calculated as CNR=(SIlesion−SIskeletal muscle)/SDbackground.
24 h after injection of a CFA emulsion into the shoulder of mice, contrast agents (0.3 mol/kg) were injected via the tail vein and the animals imaged.

[3] = target: bovine serum albumin (BSA) (Bos taurus, UniProt P02769); assay: Binding to proteins (BSA) after activation by MPO, T1 relaxation; type: biochemical; settings: for T1 (Before activation, ms): 0.5 mM agent, PBS; for T1 (Before activation, ms) / T1 (After activation, ms) / T1 change(%): MPO/GOX, 40° C.; for T1 (After activation, ms) / T1 change(%): 1 h
Sequence of bovine serum albumin (BSA) (P02769 25-607): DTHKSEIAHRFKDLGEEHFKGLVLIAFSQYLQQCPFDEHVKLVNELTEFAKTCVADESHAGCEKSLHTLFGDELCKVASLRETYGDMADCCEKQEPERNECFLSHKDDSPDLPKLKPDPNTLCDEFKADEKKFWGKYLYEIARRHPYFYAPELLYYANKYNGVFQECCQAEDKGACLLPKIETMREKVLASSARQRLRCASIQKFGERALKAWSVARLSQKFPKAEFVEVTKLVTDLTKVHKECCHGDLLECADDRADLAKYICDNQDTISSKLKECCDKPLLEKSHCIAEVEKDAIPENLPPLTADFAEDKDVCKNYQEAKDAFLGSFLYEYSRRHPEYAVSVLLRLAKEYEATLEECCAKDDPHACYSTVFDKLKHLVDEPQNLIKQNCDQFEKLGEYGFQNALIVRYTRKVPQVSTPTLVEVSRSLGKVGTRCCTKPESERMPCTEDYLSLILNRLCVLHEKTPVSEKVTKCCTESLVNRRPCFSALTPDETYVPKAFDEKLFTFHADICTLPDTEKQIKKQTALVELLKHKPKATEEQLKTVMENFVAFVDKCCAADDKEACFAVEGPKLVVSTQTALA
Description: The capability of mcMPO-Gd and MPO-Gd to bind to bovine serum albumin (BSA) after activation by MPO was evaluated. […] The relaxation rates were measured as described above.

MPO [4] = target: T1, MPO (Mus musculus, UniProt P11247); assay: MR imaging of tandem stenosis (TS) model of atherosclerotic plaque instability, intervention with AZM198; type: in vivo; settings: TS Apoe^−/− mice, 7 weeks after TS surgery, 0.3 mmol/kg i.v.
T1 construct: from tissue; host or cells: carotid / brachiocephalic plaque of living male Apoe-/- mice
T1 sequence (P11247 139-718): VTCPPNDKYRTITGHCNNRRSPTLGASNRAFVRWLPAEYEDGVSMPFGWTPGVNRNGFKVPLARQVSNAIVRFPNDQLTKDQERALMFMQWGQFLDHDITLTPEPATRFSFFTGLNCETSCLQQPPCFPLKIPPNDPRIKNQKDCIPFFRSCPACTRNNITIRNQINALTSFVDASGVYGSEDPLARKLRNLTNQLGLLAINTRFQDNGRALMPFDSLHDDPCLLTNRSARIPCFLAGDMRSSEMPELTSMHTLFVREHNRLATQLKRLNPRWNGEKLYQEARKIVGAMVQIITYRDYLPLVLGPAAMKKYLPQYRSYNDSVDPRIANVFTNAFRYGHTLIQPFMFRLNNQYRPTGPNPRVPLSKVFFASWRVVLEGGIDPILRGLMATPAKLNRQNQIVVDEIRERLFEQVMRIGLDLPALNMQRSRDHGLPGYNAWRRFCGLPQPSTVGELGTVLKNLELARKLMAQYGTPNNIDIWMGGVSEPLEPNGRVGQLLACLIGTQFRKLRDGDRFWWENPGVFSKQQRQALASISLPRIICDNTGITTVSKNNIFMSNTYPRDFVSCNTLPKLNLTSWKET
Description: Six weeks after commencement of WD, tandem stenosis (TS) was introduced into the mice as previously described (see e.g., Rashid et al, Eur. Heart J., 2018, 39:3301-3310). Male Apoe^-/- mice were anesthetized with 4% isoflurane. The right common carotid artery was dissected from circumferential connective tissues. Two stenoses were placed by tying a 6-0 blue-braided polyester fiber suture (TICRON 0.7 Metric) around the exposed artery, with the distal stenosis 1 mm from the carotid artery bifurcation and the proximal stenosis 3 mm from the distal stenosis. Blood flow was measured before and after the addition of each ligature using a perivascular flow module (Transonic, TS420) and a 0.7 mm perivascular flow probe (Transonic MA0.7PSB). Flow for each ligature in the TS was defined as 70% of baseline flow after addition of the distal ligature and 20% of baseline flow after addition of the proximal ligature. […] The contrast-to-noise ratio (CNR) was calculated as follows: CNR=([…] muscle)/SDbackground. The mean CNRs of three consecutive slices in plaque with unstable phenotype and corresponding segments of the left carotid artery (plaque-free), in addition to 1-2 consecutive slices in the brachiocephalic trunk (stable plaque), were calculated. Segmental enhancement attributable to MPO was assessed by calculating the ΔCNR=CNRpost-contrast-CNRpre-contrast. […]

[5] = 0.47 T, PBS, 40° C.; determined previously (Querol et al); cited from earlier work
[6] = Kinetic stability: transmetallation with Zn^2+ (relaxation rate R1 over 95 h); type: physicochemical; settings: 1 mM agent, ZnCl2 2.5 mM, PBS, 40° C., 0.47 T
Description: Am. Chem. Soc., 2010, 132:168-177; and Laurent et al, Invest. Radiol., 2001, 36:115-122). mcMPO-Gd or MPO-Gd (1 mM) was incubated with ZnCl2 (2.5 mM) in PBS at 40° C., and the relaxation rates (R1) were measured for 95 h using an inversion-recovery pulse sequence on the Bruker Minispec (Bruker Analytics, North Billerica, MA) at 0.47 T (20 MHz) at 40° C. The stability of mcMPO-Gd was evaluated by kinetic index (R1(t)/R1(t=0)=0.8) and thermodynamic index (R1(72 h)/R1(t=0)) and compared with MPO-Gd (see e.g., Rodriguez et al, J. Am. Chem. […] Org. Chem., 2006, 71:3332-3334). […] T1 relaxation time was measured as previously described at different time points (see e.g., Rodriguez et al, J. Am. Chem. Soc., 2010, 132:168-177). […] Radiol., 2001, 36:115-122) indicating high stability of mcMPO-Gd, consistent with a previous report on the kinetic stability of the macrocyclic GBCAs (see e.g., Laurent et al, Contrast Media Mol. Imaging 2006, 1:128-137).

## CNC(=O)CN(CCN(CCN(CC(=O)[O-])CC(=O)NC)CC(=O)[O-])CC(=O)[O-].[Gd+3] [BMA—DTPA—Gd, BMA-Gd-DTPA]
[1]; literature value (Laurent et al)
  R1(t=72 h)/R1(t=0) (long-term index): 0.09
[1]; literature value
  t (min) for R1(t)/R1(t=0) = 0.8: 50 to 60 min

## CNC[C@H](O)[C@@H](O)[C@H](O)[C@H](O)CO.O=C([O-])CN1CCN(CC(=O)[O-])CCN(CC(=O)O)CCN(CC(=O)[O-])CC1.[Gd+3] [Dotarem, gadoterate meglumine]
MPO [2]; i.v., over 60 min
  contrast-to-noise ratio (CNR) over time: decreased rapidly over time

## O=C([O-])CN(CCN(CC(=O)[O-])CC(=O)NCCc1c[nH]c2ccc(O)cc12)CCN(CC(=O)[O-])CC(=O)NCCc1c[nH]c2ccc(O)cc12.[Gd+3] [MPO-Gd, bis-5-HT-Gd-DTPA]
MPO [2]; 60 min
  increase in activation ratio (AR=CNR(post-contrast)/CNR(first post-contrast)): 2 fold
[3]; BSA vs no BSA, after MPO activation
  improvement in T1 shortening in the presence of BSA: 22%
[3]; BSA
  T1 (Before activation, ms): 381 ms
  T1 (After activation, ms): 246 ms
  T1 change(%): 54%
[3]; No BSA
  T1 (Before activation, ms): 375 ms
  T1 (After activation, ms): 283 ms
  T1 change(%): 32%
MPO [4]
  ΔCNR in unstable plaque: 15.0
[5]
  relaxivity (r1): 4.3 mM⁻¹ s⁻¹
[6]
  R1(t=72 h)/R1(t=0) (long-term / thermodynamic index): 0.76
  t (min) for R1(t)/R1(t=0) = 0.8 (kinetic / ratio index): 2866 min
